Laboratory results from US20110053773A1, “METHODS OF IMPROVING NUTRITIONAL VALUE OF PLANTS” (UNIVERSITY OF TENNESSEE RESEARCH FOUNDATION, priority 2009, published 2011).

Tests used:
[1] = tested on: sweet corn (Zea mays var. rugosa) cultivar 'Incredible'; experiment: Content analysis of sweet corn ears: crude protein, amino acids, detergent fiber, fatty acids, minerals (Example 1); format: in vivo; details: POST at b59 rates; every treatment incl. check also got atrazine 560 g ai/ha + COC 1% v/v; relative to treated check (atrazine), check=0
From the text: Herbicide treatments were applied in a water carrier at 23 gallons of solution per acre on a field site near Knoxville, Tenn. and Painter, Va. Treatments include the following: 1) nicosulfuron at 35 g ai/ha (Accent); 2) mesotrione at 105 g ai/ha (Callisto); 3) nicosulfuron at 35 g ai/ha+mesotrione at 105 g ai/ha (Callisto+Accent); 4) tembotrione at 92 g ai/ha+isoxadifen-ethyl at 46 g ai/ha (Laudis); 5) topramezone at 15 g ai/ha (Impact); 6) nicosulfuron at 35 g ai/ha+isoxadifen-ethyl at 9 g ai/ha (Accent Q); 7) nicosulfuron at 35 g ai/ha+isoxadifen-ethyl at 9 g ai/ha+topramezone at 15 g ai/ha (Accent Q+Impact); 8) nicosulfuron 35 g ai/ha+isoxadifen-ethyl at 9 g ai/ha+mesotrione at 105 g ai/ha (Accent Q+Callisto); 9) treated check (atrazine or Aatrex). All treatments included a PRE application of atrazine plus metolachlor in order to maintain weed free conditions. In addition, all POST treatments (including the treated check) included atrazine at 560 g ai/ha and crop oil concentrate at 1% v/v. […] Sweet corn was harvested from the center two rows of each four row plot and weighed in the husk.

[2] = tested on: sweet corn variety 'Incredible'; experiment: Sugar and key antioxidant content of sweet corn (Example 1, Table 15); format: in vivo, Zea mays var. rugosa; details: rates g ai/ha: Nicosulfuron 35, Mesotrione 105, Topramezone 18, Isoxadifen-ethyl 13, all incl. treated check with atrazine 560 g ai/ha + 1% v/v crop oil concentrate
From the text: Herbicide treatments were applied in a water carrier at 23 gallons of solution per acre on a field site near Knoxville, Tenn. and Painter, Va. […] All treatments included a PRE application of atrazine plus metolachlor in order to maintain weed free conditions. In addition, all POST treatments (including the treated check) included atrazine at 560 g ai/ha and crop oil concentrate at 1% v/v. […] Sweet corn was harvested from the center two rows of each four row plot and weighed in the husk.

[3] = tested on: sweet corn cultivars 'Merit', 'Temptation', 'Incredible'; experiment: Kernel carotenoids of sweet corn after mesotrione and atrazine (Example 3); format: in vivo; design: Kernel carotenoids: Lutein / Kernel carotenoids: Zeaxanthin: unit not given here; details: mesotrione 105, atrazine 560 g ai/ha
Experimental: (§1) Studies were conducted in a field in Knoxville, Tenn. to ascertain the growth, stress tolerance and nutritional quality differences following postemergence applications of herbicides mesotrione and atrazine, alone and in mixtures together, on the young sweet corn cultivars: ‘Merit’ (yellow-kernel sensitive genotype), ‘Temptation’ (bicolor tolerant genotype), and ‘Incredible’ (yellow-kernel moderately sensitive genotype).
(§2) Herbicide treatments were applied as follows: 1) untreated control; 2) mesotrione (meso) at 105 g ai/ha EPOST; 3) mesotrione at 105+atrazine at 560 g ai/ha EPOST; 4) atrazine at 560 g ai/ha EPOST; 5) mesotrione at 105 g ai/ha LPOST; 6) mesotrione at 105+atrazine at 560 g ai/ha LPOST; and 7) atrazine at 560 g ai/ha LPOST. Visual ratings of plant growth were taken during season, and kernels for carotenoids were measured at harvest.

[4] = tested on: sweet corn cultivars 'Merit', 'Temptation', 'Incredible'; experiment: Visual leaf tissue bleaching of sweet corn (Example 3, Table 9); format: in vivo; details: mesotrione 105, atrazine 560 g ai/ha
Experimental: as §1, §2

[5] = tested on: 'Riviera' bermudagrass; experiment: Visual tissue whitening of bermudagrass after mesotrione (Example 5); format: in vivo, Cynodon dactylon (L.) Pers.; details: 0.28 kg/ha postemergence
From the text: Greenhouse and laboratory studies were initiated with ‘Riviera’ bermudagrass (Cynodon dactylon (L.) Pers.) treated postemergence with mesotrione at 0.28 kg×ha^−1 and sampled for tissue pigment concentrations at 0, 3, 7, 14, 21, 28 and 35 days after treatment (DAT; Table 16). […] Due to the antioxidant activity of these carotenoid pigments, these increases should improve bermudagrass stress tolerance (Kopsell et al., 2010).

[6] = 'Incredible' moderately sensitive genotype, EPOST
[7] = 'Incredible' moderately sensitive genotype, LPOST
[8] = 'Merit' sensitive genotype, EPOST
[9] = 'Merit' sensitive genotype, LPOST

## CS(=O)(=O)c1ccc(C(=O)C2C(=O)CCCC2=O)c([N+](=O)[O-])c1 [Mesotrione*CALLISTO, mesotrione]
[1]
  Acid DF: 10 % of check
  Alanine: 4 % of check
  Amino Acid: 6 % of check
  Aspartic ac: 7 % of check
  Cysteine: 6 % of check
  Glutamic ac: 6 % of check
  Glycine: 4 % of check
  Isoleucine: 6 % of check
  Leucine: 6 % of check
  Lysine: 12 % of check
  Methionine: 2 % of check
  Neutral DF: 13 % of check
  Proline: 9 % of check
  Protein: 7 % of check
  Threonine: 16 % of check
  Valine: 7 % of check
  calcium: 0 % of check
  copper: 0 % of check
  iron: 21 % of check
  magnesium: 20 % of check
  manganese: 25 % of check
  mon fattyac: 9 % of check
  phosphorous: 12 % of check
  polyfattyac: 12 % of check
  potassium: 12 % of check
  sat fattyac: 7 % of check
  sodium: 21 % of check
  tot fattyac: 11 % of check
  zinc: 16 % of check
[2]
  Fructose, percent increase: 18%
  Gamma-tocopherol, percent increase: 5%
  Glucose, percent increase: 19%
  Lutein, percent increase: 17%
  Maltose, percent increase: 15%
  Sucrose, percent increase: −32%
  Total Sugars, percent increase: −4%
  Zeaxanthin, percent increase: 1%
  antheraxanthin, percent increase: 14%
[3]; [6]
  Lutein % change from untreated control: −6.4%
  Zeaxanthin % change from untreated control: −7.4%
[3]; 'Incredible' moderately sensitive genotype, EPOST, untreated 0.328
  Kernel carotenoids: Lutein: 0.307
[3]; 'Incredible' moderately sensitive genotype, EPOST, untreated 0.448
  Kernel carotenoids: Zeaxanthin: 0.415
[3]; [7]
  Lutein % change from untreated control: +4.6%
  Zeaxanthin % change from untreated control: +1.3%
[3]; 'Incredible' moderately sensitive genotype, LPOST, untreated 0.328
  Kernel carotenoids: Lutein: 0.343
[3]; 'Incredible' moderately sensitive genotype, LPOST, untreated 0.448
  Kernel carotenoids: Zeaxanthin: 0.454
[3]; [8]
  Lutein % change from untreated control: +7.8%
  Zeaxanthin % change from untreated control: +12.0%
[3]; 'Merit' sensitive genotype, EPOST, untreated 0.509
  Kernel carotenoids: Zeaxanthin: 0.570
[3]; [9]
  Kernel carotenoids: Lutein: 0.577
  Lutein % change from untreated control: +8.7%
  Zeaxanthin % change from untreated control: −3.7%
[3]; 'Merit' sensitive genotype, LPOST, untreated 0.509
  Kernel carotenoids: Zeaxanthin: 0.409
[4]; ‘Incredible’, 7 DAT, EPOST
  Leaf Tissue Visual Bleaching (%): 16%
[4]; ‘Incredible’, 7 DAT, LPOST
  Leaf Tissue Visual Bleaching (%): 11%
[4]; ‘Incredible’, 14 DAT, EPOST
  Leaf Tissue Visual Bleaching (%): 9%
[4]; ‘Incredible’, 14 DAT, LPOST
  Leaf Tissue Visual Bleaching (%): 9%
[4]; ‘Incredible’, 21 DAT, EPOST
  Leaf Tissue Visual Bleaching (%): 8%
[4]; ‘Incredible’, 21 DAT, LPOST
  Leaf Tissue Visual Bleaching (%): 1%
[4]; ‘Merit’, 7 DAT, EPOST
  Leaf Tissue Visual Bleaching (%): 61%
[4]; ‘Merit’, 7 DAT, LPOST
  Leaf Tissue Visual Bleaching (%): 34%
[4]; ‘Merit’, 14 DAT, EPOST
  Leaf Tissue Visual Bleaching (%): 53%
[4]; ‘Merit’, 14 DAT, LPOST
  Leaf Tissue Visual Bleaching (%): 29%
[4]; ‘Merit’, 21 DAT, EPOST
  Leaf Tissue Visual Bleaching (%): 44%
[4]; ‘Merit’, 21 DAT, LPOST
  Leaf Tissue Visual Bleaching (%): 9%
[5]; by 14 DAT
  visual tissue whitening, maximum: 38%
[5]; by 21 DAT
  recovery of discolored tissue: re-greening of discolored tissue was observed
